The source of these data is patent publication US12251382B2, “Substituted amino-pyrimidine compound for use in a method for treatment and prevention of multiple sclerosis” (Merck Patent GmbH, priority 2018, dated 2025).

Each structure is given as a SMILES string. Counter-ions that a name gives are not always drawn.

Series [1] concerns human patients suffering from relapsing multiple sclerosis (RMS). Kind of series: Phase II RMS study: brain MRI (Gd+ T1 lesions, T2 lesions). Also noted: key to Gd+ T1 lesion rate (subject level), Median / Gd+ T1 Lesion rate, adjusted (negative binomial model): number of Gd+ T1 lesions per scan. In kind it is in vivo. The procedure: (§1) The assessing Investigator and central MRI reader were treatment blinded.
The protocol specified that subjects self-administered the IMP at a set time each day (every 12 hours ±2 hours). Subjects were to take their daily dose more than 1 hour prior to a meal or snack and more than 2 hours after a meal or snack. Clear fluids were allowed at any time. On trial visit days, the IMP was to be administered during the trial visit after the scheduled trial visit procedures (other than post-treatment PK/PD sampling) are completed.
Stratification occurred by region (USA or Western Europe, Eastern Europe and BTKO capable, Eastern Europe and not BTKO capable, and RoW). For the first 7 days, Tecfidera was administered orally at 120 mg twice daily. Following this and for the duration of treatment, Tecfidera was administered orally at 240 mg twice daily.
The protocol specified that MRI scans were to be performed at Screening, at 4-week intervals from Week 12 to 24, and at the End of Treatment Visit at Week 48 (including for subjects receiving Tecfidera who choose to enter the OLE Period). […] If a subject discontinued the study more than 4 weeks after his or her most recent MRI, the protocol specified that an MRI may be obtained at the 4-week Safety Follow-up Visit. The Screening MRI scan was to be acquired before randomization and dosing to allow for the readouts to be read by the central MRI reader (approximately 7 days).
Gadolinium was used to enhance T1-weighted lesions and to optimize clarity and accuracy of reporting. As gadolinium is excreted renally, subjects with acute renal insufficiency (eGFR <45 mL/min/1.73 m^2) will be excluded from the trial.
The protocol specified that brain MRI scans were performed according to a standardized imaging protocol before and after the administration of single-dose gadolinium. Images were assessed and reported by an independent, blinded, centralized MRI reading service, provided by NeuroRx Research. The assessment was performed in the absence of clinical information. Further details, including the scans required and the optimal MRI workflow, were provided in a separate Imaging Manual provided to each trial site by NeuroRx Research. All MRI images were reviewed and reported locally by a radiologist for safety. The local report was to contain only non-MS pathology and was to be provided to the Treating Investigator.
The primary endpoint was the total number of gadolinium-enhancing T1 lesions at Week 12, 16, 20, and 24. The primary analysis was a comparison of each evobrutinib dose arm versus placebo based on this endpoint, with a supportive test for dose-response. Secondary Endpoints
Other covariates were permitted to be considered. […] Descriptive statistics for the total number of Gd+ T1 lesions, at Week 12, 16, 20, and 24, are provided for each treatment group.
Estimation of mean per-scan number of Gd+ T1 lesions at Weeks 12, 16, 20, and 24, for each treatment group, was based on the NB model. In the analysis of each secondary endpoint, other covariates were permitted to be included in the model.
Primary and secondary efficacy endpoints were analysed based on the modified intention-to-treat (mITT) analysis set, consisting of all randomized patients with at least one available baseline and one post-baseline MRI assessment. […] For each endpoint, rate ratio (RR; null-hypothesis RR=1.0) adjusted for baseline disease activity was reported together with associated 95% CI and p-value. The T2 lesion endpoint was analysed similarly. Dose-response relationships between evobrutinib treatment dose and primary and key secondary endpoints were assessed for linear and monotonic trend. The analysis of CFB in cube root of volume of T2 lesions at Week 24 was based on a mixed-effect model for repeated measures, with fixed effects for treatment, week of visit, and treatment-by-week interaction, random effect for subject, and adjustment for baseline cube root of lesion volume. CFB in SF-36 score at Week 24 was analysed similarly. […]

Series [2] shares this test system. Kind of series: Phase II RMS study: HRQoL SF-36 Physical Component Summary score. Format: in vivo. As to conditions: open-label reference arm, 240 mg twice daily. The protocol:
Analysis of Primary Endpoint
(§2) Primary and secondary efficacy endpoints were analysed based on the modified intention-to-treat (mITT) analysis set, consisting of all randomized patients with at least one available baseline and one post-baseline MRI assessment. […] For each endpoint, rate ratio (RR; null-hypothesis RR=1.0) adjusted for baseline disease activity was reported together with associated 95% CI and p-value. The T2 lesion endpoint was analysed similarly. Dose-response relationships between evobrutinib treatment dose and primary and key secondary endpoints were assessed for linear and monotonic trend. The analysis of CFB in cube root of volume of T2 lesions at Week 24 was based on a mixed-effect model for repeated measures, with fixed effects for treatment, week of visit, and treatment-by-week interaction, random effect for subject, and adjustment for baseline cube root of lesion volume. CFB in SF-36 score at Week 24 was analysed similarly. Descriptive statistics were used to further describe the study outcomes.

Series [3] has the same test system. Kind of series: Phase II RMS study: qualified relapse assessment (ARR, relapse-free status). In kind it is in vivo. The conditions noted are these: open-label reference arm, 240 mg twice daily, Week 24. The protocol:
as §1
Subjects were assessed for MS relapse at visits beginning at Week 4. Relapse was also assessed at any Unscheduled Visit for Neurological Worsening and Relapse Assessment. For subjects in the OLE Period, MS relapse was assessed at all visits. A qualifying relapse was defined as new, worsening or recurrent neurological symptoms attributed to MS that last for at least 24 hours without fever or infection, or adverse reaction to prescribed medication, preceded by a stable or improving neurological status of at least 30 days. The relapse must have been accompanied by new clinical signs (i.e., changes in the neurological examination or an increase in EDSS score).
The protocol specified that all cases of potential relapse were to be objectively confirmed by the Investigator regardless of whether they were identified during a scheduled or unscheduled visit. Any assessments needed to confirm the relapse were to be performed, and details of the relapse were to be documented within the relevant section(s) of the eCRF.
Additional Secondary Endpoints
Analysis of secondary endpoints was based on the mITT analysis set. […] Descriptive statistics for ARR were calculated for each treatment group as the total number of qualified relapses divided by the number of subject-years of observation.
as §2

Series [4] is described as follows: Phase II RMS study: safety (adverse events, laboratory) over 24 weeks. Format: in vivo. As to conditions: 240 mg twice daily, 24 weeks. The procedure: as §1
Safety profile of the IMP was assessed through the recording, reporting and analysis of baseline medical conditions; AEs; physical examination findings including vital signs, ECGs, and laboratory tests (including Ig and subclass concentration and B, NK, and T cell counts). Comprehensive assessment of any apparent toxicity experienced by each subject was performed from the time of giving informed consent and throughout the trial. The Investigator was to report any AEs, whether observed by the Investigator or reported by the subject.
Adverse Event: An AE was any untoward medical occurrence in a subject or clinical investigation subject administered a pharmaceutical product, regardless of causal relationship with this treatment. An AE could therefore be any unfavorable and unintended sign (including an abnormal laboratory finding), symptom, or disease temporally associated with the use of a medicinal product, whether or not considered related to the medicinal product.
The Investigator was required to grade the severity or toxicity of each AE. Investigators referenced the National Cancer Institute-Common Terminology Criteria for AEs (NCI-CTCAE), Version 4.03 (publication date: 14 Jun. 2010) a descriptive terminology provided in the Manual of Procedures that can be used for AE reporting.
A general grading (severity/intensity; hereafter referred to as severity) scale was provided at the beginning of the above referenced document, and specific event grades were also provided. Only if a particular AE's severity was not specifically graded by the guidance document, then the Investigator was to use the general NCI-CTCAE definitions of Grade 1 through Grade 5 following his or her best medical judgment. The 5 general grades are: • Grade 1 or Mild • Grade 2 or Moderate • Grade 3 or Severe • Grade 4 or Life-threatening • Grade 5 or Death.
Serious Adverse Events: An SAE is any untoward medical occurrence that at any dose: • Results in death. • Is life-threatening. (Note: The term “life-threatening” refers to an event in which the subject is at risk of death at the time of the event, not an event that hypothetically might have caused death if it was more severe) • Requires inpatient hospitalization or prolongs an existing hospitalization, except in the case of hospitalizations due to protocol-defined relapses. • Results in persistent or significant disability or incapacity. • Is a congenital anomaly or birth defect. • Is otherwise considered to be medically important.

The conditions of series [5]: therapeutic or supratherapeutic doses, thorough QT studies; cited from earlier work.
Setting [6] is: open-label reference arm, 240 mg twice daily.

Regarding `COC(=O)/C=C/C(=O)OC` [Dimethyl fumarate, dimethyl fumarate, reference compound], the “Total Gd+ T1 lesions over 4 scans in an outlier patient” value in series [1] (one patient of the open-label reference arm) came to 230. Further, in series [1] (setting [6]), the “Change in volume of T2 lesions from baseline to week 24, Mean ± SD” value is 0.46 ± 2.97 cc; the “Change in volume of T2 lesions from baseline to week 24, Median” value is recorded as −0.02 cc; the “Gd+ T1 lesion rate (subject level), Median” value was 0.0; the “Gd+ T1 lesion rate (subject level; count per scan, weeks 12-24), Mean ± SD” value was determined as 1.45 ± 7.29. In addition, in series [1] (setting [6]), the “Total Number of New or Enlarging T2 Lesions at Week 24, Mean ± SD” value was determined as 5.35 ± 16.67; the “Total number of Gd+ T1 lesions at Weeks 12, 16, 20, 24, Mean ± SD” value is given as 5.78 ± 29.17; the “Total number of Gd+ T1 lesions at Weeks 12, 16, 20, 24, Median (min-max)” value was 0 (0-213). In series [1] (open-label reference arm, 240 mg twice daily, Weeks 12-24), the “New or enlarging T2 lesion rate (subject level), Mean ± SD” value was 1.54 ± 5.46. For the same compound, in series [1] (open-label reference arm, 240 mg twice daily, listed as dimethyl fumarate), the “Total number of Gd+ T1 lesions at Weeks 12, 16, 20, 24, Mean ± SD” value is recorded as 5.78 (±29.17). In series [2], the “Change in SF-36 PCS score from baseline to week 24, Mean ± SD” value was 1.6 ± 5.17 and the “Change in SF-36 PCS score from baseline to week 24, Median” value is on record as 1.7. Moreover, in series [2] (listed as dimethyl fumarate), the “Change in SF-36 PCS score from baseline to week 24, Mean ± SD” value came out at 1.6±5.17. In addition, in series [3], the “Proportion of patients who qualified as relapse-free” value worked out at 89% and the “Unadjusted ARR” value is given as 0.20. In series [4], the “TEAE: Infections and infestations” value is listed as 7 (13.0) n (%); the “TEAE: Urinary tract infection” value was 0 (0.0) n (%).

With `CC#CC(=O)N1CCC[C@H]1c1nc(-c2ccc(C(=O)Nc3ccccn3)cc2)c2c(N)nccn12` [acalabrutinib], in series [5], the “Prolongation of the QTc interval” value is given as “Neither ibrutinib nor acalabrutinib have been associated with clinically relevant prolongation of the QTc interval”.
